Converted amounts (≈) assume the structure as drawn.
What was measured:
[1] = physchem
[2] = in vitro; conditions: human
[3] = physchem; conditions: octan-1-ol/water
[4] = in vitro; conditions: SD, HW or BN, rat, plasma
[5] = physchem; conditions: pH 7.4 buffer
[6] = in vitro; conditions: human, plasma, PPB

Structure (SMILES)	pKa [1]	logD ([3]; pH 7.4, LogD7.4)	further results
CCOC(=O)N1CCC(Nc2cc(OC)ccn2)CC1	7.2	–	microsomal CLint ([2]; liver microsomes): 4 µL/min/mg
CCOC(=O)N1CCC(Nc2ccccn2)CC1	6.6	–	–
COc1ccnc(NC2CCN(C(=O)c3ccccc3)CC2)c1	6.85	2.06	microsomal CLint ([2]; liver microsomes): < 3 µL/min/mg
COc1ccnc(NC2CCN(C(=O)c3ccc(Cl)cc3)CC2)c1	7.2	2.82	–
CC(C)(C)NC(=O)[C@@H]1C[C@@H]2CCCC[C@@H]2CN1C[C@@H](O)[C@H](Cc1ccccc1)NC(=O)[C@H](CC(N)=O)NC(=O)c1ccc2ccccc2n1	7.14	–	fraction unbound at 5 h [4]: 0.0048; solubility thermodynamic [5]: 36.3 µM (≈ 24.4 µg/mL); fraction unbound at 5 h [6]: 0.0114
NC1=NC(c2cccs2)Nc2cccc(F)c21 (stereo not given)	8.73	0.91	–
Cc1cc(N)nc(CCNC(=O)c2ccc(C#N)cc2)c1	7.1	1.62	solubility thermodynamic [5]: 64.6 µM (≈ 18.1 µg/mL)
CCOC(=O)N1CCC(Nc2cc(Cl)ccn2)CC1	5.3	–	–
C[C@H]1CN=C(N)c2sccc2O1	11	–	microsomal CLint ([2]; microsomes): 7 µL/min/mg
COc1ccc(CNc2cc(C)ccn2)c(O)c1	6.8	–	–
COc1ccccc1CNc1cc(C)ccn1	7.1	3.28	–
Cc1ccnc(NCc2ccccc2O)c1	6.8	3.35	–
Cc1ccnc(NCc2c(O)ccc3ccccc23)c1	6.6	–	–
O=C(O)COc1ccc(Cl)cc1CN1CCC(S(=O)(=O)c2ccccc2)CC1	7.8	0.48	–
CCOC(=O)N1CCC2(CC1)N=C(N)c1sccc1N2	10.5	–	–
N#Cc1ccc(Cl)cc1O[C@H](CCN)c1ccccc1	10.3	0.76	microsomal CLint ([2]; liver microsomes): 4 µL/min/mg
c1ccc(CSc2nnc([C@@H]3CCCN3)o2)cc1	7.03	–	–
CCOC(=O)N1CCC2(CC1)N=C(N)c1c(F)cccc1N2	9.1	–	–
N#Cc1ccc(C(=O)N2CCC3(CC2)N=C(N)c2c(F)ccc(F)c2N3)cc1	8.15	0.86	fraction unbound at 5 h [6]: 0.285
NC1=NC(c2ccccc2)Nc2ccccc21 (stereo not given)	9.83	–	–
NCC(Oc1cc(Cl)ccc1Cl)c1ccccc1 (stereo not given)	8.5	–	–
Cc1ccnc(NCc2ccccc2)c1	7	3.08	–
Nc1ccc(OCC(=O)O)c(-c2ccccc2)c1	5.1	–	microsomal CLint ([2]; liver microsomes): < 3 µL/min/mg
CCC(CCNC)Oc1cc(Cl)ccc1C#N (stereo not given)	10.1	0.38	microsomal CLint ([2]; liver microsomes): < 3 µL/min/mg
CNCC[C@@H](Oc1cc(C(F)(F)F)ccc1C#N)c1ccccc1	10.4	1.3	microsomal CLint ([2]; microsomes): < 3 µL/min/mg
Cc1ccc(C#N)c(S[C@H](CCN)c2ccccc2)n1	9.8	–	–

Structure (SMILES)	pKa [1]	logD ([3]; pH 7.4, LogD7.4)	further results
CN(C(=O)Cc1ccc(S(=O)(=O)N(C)C)cc1)C1CCN(CCC(c2ccccc2)c2ccccc2)CC1	8.1	–	–
CC(=O)Nc1ccc(CNc2[nH]nc3ccnc(Oc4ccccc4)c23)cc1	3.2	3.03	microsomal CLint ([2]; liver microsomes): 12 µL/min/mg
O=C(CN1C2=NCCN2c2ccccc21)c1ccc(Cl)cc1	9.1	2.62	fraction unbound at 5 h [6]: 0.339; microsomal CLint ([2]; microsomes): 4 µL/min/mg
COc1cccc(C(=O)NCCN2CCC(Oc3ccc(Cl)c(Cl)c3)CC2)c1	7.4	–	solubility thermodynamic [5]: 9.5 µM (≈ 4.02 µg/mL); fraction unbound at 5 h [6]: 0.0008; microsomal CLint ([2]; liver microsomes): 9 µL/min/mg
COc1ccc(C2(c3cccc(-c4cncnc4)c3)N=C(C)C(N)=N2)cc1C (stereo not given)	5.83	–	fraction unbound at 5 h [4]: 0.271; fraction unbound at 5 h [6]: 0.062
CCc1nc2c(C)cc(C)nc2[nH]1	5.5	–	–
O=C(NCC12CC3CC(CC(C3)C1)C2)c1cc(CC2CCNCC2)ccc1Cl	10.1	1.49	fraction unbound at 5 h [6]: 0.0872
O=C(c1ccccc1)N1CCN(Cc2ccccc2)CC1	6.2	–	–
C[C@H](CO)Nc1nc(SCc2cccc(F)c2F)nc2nc(N)cnc12	4.2	2.89	fraction unbound at 5 h [6]: 0.0447; microsomal CLint ([2]; liver microsomes): 12 µL/min/mg
Cc1ncc[nH]1	7.8	–	–
CCc1ncc[nH]1	7.8	–	–
Nc1nc2ccccc2[nH]1	7.2	–	microsomal CLint ([2]; liver microsomes): < 3 µL/min/mg
NC1=Nc2cccc3cccc(c23)N1	7.6	–	–
NC1=NC(c2ccc(F)cc2)Nc2cccc(F)c21 (stereo not given)	9	–	–
NC1=NC(c2ccco2)Nc2c(F)ccc(F)c21 (stereo not given)	8.2	1.2	–
COc1ccc(OC)c(CNc2[nH]nc3cccc(Oc4ccccc4)c23)c1	3.8	–	microsomal CLint ([2]; liver microsomes): 11 µL/min/mg
CCOC(=O)N1CCC2(CC1)N=C(N)c1c(Cl)cccc1N2	9	–	–
N#Cc1ccc(C(=O)N2CCC3(CC2)N=C(N)c2c(F)cccc2N3)cc1	9	0.66	–
NC1=NC(c2ccco2)Nc2ccccc21 (stereo not given)	9.13	–	–
CON(C)C(=O)c1c(Cn2c(C)nc(Cl)c2Cl)sc2c1c(=O)n(C)c(=O)n2CC(C)C	2.7	2.23	solubility thermodynamic [5]: 513 µM (≈ 250 µg/mL)
N#Cc1ccc(C(=O)N2CCC3(CC2)N=C(N)c2c(F)ccc(F)c2N3)cn1	8.4	0.79	fraction unbound at 5 h [6]: 0.134
Cc1nc(N)sc1C	6.3	–	–
Cc1nc2c(OCc3ccccc3)cccn2c1CC#N	5.6	–	–
NCCc1ccc(Cl)cc1	10.1	–	–
NCCc1ccc([N+](=O)[O-])cc1	9.4	–	–
O=C(NCC12CC3CC(CC(C3)C1)C2)c1cc(OCCCNCCCO)ccc1Cl	9.5	1.41	microsomal CLint ([2]; liver microsomes): 27 µL/min/mg

Structure (SMILES)	pKa [1]	logD ([3]; pH 7.4, LogD7.4)	further results
O=C(NCC12CC3CC(CC(C3)C1)C2)c1cc(OC2CCNCC2)ncc1Cl	9.1	1.56	–
Cc1cc(C)nc(N)c1	7.7	0.85	–
Cc1ccnc(N)c1N	7.2	–	–
NC1=NC(C2CC2)Cc2ccccc21 (stereo not given)	> 11	–	–
NC1=NC(C2CC2)Cc2ccsc21 (stereo not given)	> 11	–	–
CCN(CC)CCNC(=O)c1ccc(NC(C)=O)cc1 [ACECAINIDE]	9.14	–	–
CCN(CC)C(C)C(=O)c1ccccc1 (stereo not given) [DIETHYLPROPION]	8.8	–	logD ([3]; pH 7.4): 1.18
CN(C)CCn1cnc2c1c(=O)n(C)c(=O)n2C [DIMETHAZAN]	7.5	–	–
CN(C)CCC=C1c2ccccc2COc2ccccc21 [DOXEPIN]	8.5	2.15	–
CCc1cc(C(N)=S)ccn1 [ETHIONAMIDE]	4.4	1.52	fraction unbound at 5 h [4]: 0.54
COc1ccc2c3c1O[C@H]1C[C@@H](O)C=C[C@@]31CCN(C)C2 [GALANTAMINE]	8.21	–	–
O=C(CCCN1CCC(O)(c2ccc(Cl)cc2)CC1)c1ccc(F)cc1 [HALOPERIDOL]	8.75	2.67	fraction unbound at 5 h [4]: 0.186; solubility thermodynamic [5]: 50.1 µM (≈ 18.8 µg/mL)
CN1CCC(=C2c3ccccc3CC(=O)c3sccc32)CC1 [KETOTIFEN]	9	–	–
CC12CC3CC(C)(C1)CC(N)(C3)C2 [MEMANTINE]	10.7	0.06	–
Cc1ncc([N+](=O)[O-])n1CCO [METRONIDAZOLE]	2.51	-0.11	–
COc1ccc(OC)c(C(O)CNC(=O)CN)c1 (stereo not given) [MIDODRINE]	7.59	–	–
c1ccc2c(CC3=NCCN3)cccc2c1 [NAPHAZOLINE]	10.3	–	–
C=CCOc1ccccc1OCC(O)CNC(C)C (stereo not given) [OXPRENOLOL]	9.69	0.2	–
CCOCc1nc2c(N)nc3ccccc3c2n1CC(C)(C)O [RESIQUIMOD]	7.1	1.69	fraction unbound at 5 h [4]: 0.574; solubility thermodynamic [5]: 417 µM (≈ 131 µg/mL)
Cc1nc2n(c(=O)c1CCN1CCC(c3noc4cc(F)ccc34)CC1)CCCC2 [RISPERIDONE]	8.49	–	fraction unbound at 5 h [4]: 0.0544; logD ([3]; pH 7.4): 2.05
CC(C)(C)c1ccc(C(O)CCCN2CCC(C(O)(c3ccccc3)c3ccccc3)CC2)cc1 (stereo not given) [TERFENADINE]	8.8	3.99	solubility thermodynamic [5]: 5.4 µM (≈ 2.55 µg/mL); fraction unbound at 5 h [6]: 0.0084
c1ccc2c(c1)CCCC2C1=NCCN1 (stereo not given) [TETRAHYDROZOLINE]	10.6	–	–
c1ccc(CC2=NCCN2)cc1 [TOLAZOLINE]	10.7	–	–
Cc1cc(C(C)(C)C)cc(C)c1CC1=NCCN1 [XYLOMETAZOLINE]	10.6	–	–

Source: ChEMBL document CHEMBL3301361, “Experimental in vitro DMPK and physicochemical data on a set of publicly disclosed compounds”
